Here are results for two compounds from patent US6509401B1, “Synergistic flame retardant combination of salts of 1-hydroxy-dihydrophosphole oxides and/or 1-hydroxyphospholane oxides and nitrogen compounds for use in polymers” (Clariant GmbH, priority 1997, dated 2003).

A short description of the data set: Comparison of water solubilities at 20° C. It counts as physicochemical. How it is done:
Comparison of Water Solubilities at 20° C.

Consider `CCP(C)(=O)[O-].CCP(C)(=O)[O-].CCP(C)(=O)[O-].[Al+3]` [MEPAL, Aluminum salt of methylethylphosphinic acid], for which the Water solubility was 6300 µg/mL.

`O=P1([O-])CCCC1.O=P1([O-])CCCC1.O=P1([O-])CCCC1.[Al+3]` [PHOLAL, Aluminum salt of 1-hydroxy-1H-phospholane 1-oxide] showed a Water solubility of 4300 µg/mL.
